Results published in patent publication US5840927A, “Sesquiterpene compounds” (Toa Gosei Co., Ltd., priority 1995, dated 1998).
Converted amounts (≈) assume the structure as drawn.

What was measured:
[1] = test system: Candida albicans TIMM1623; experiment: MIC assay of anti-fungal activity in vitro, Candida albicans TIMM1623; type: cell-based; conditions: 24 h, C. albicans TIMM1623, Yeast Morphology Ager, serial double dilution, 30° C., 1 day
Description: (§1) In the following, examples of anti-fungal assays are described.
(§2) In the assay standard microbial strains supplied from Research Center for Eumyceta and Mycosis, Teikyo University, Japan, were used as the test fungi, and Yeast Morphology Ager (DIFCO) was used as the medium for the drug sensitivity assays.
(§3) Firstly, the given fungus was smeared on the potato-dextrose agar media (Nissui Seiyaku) slants, incubated at 30° C. for 1 day (for Candida albicans and Cryptococcus neoformans) or for 4 days (for Aspergillus nigar and Aspergillus fumigatus), and then the fungus grown on the slant was washed out with a sterilized physiological salt solution containing 0.1% Tween 80. The washed out fungus was passed through a filter with 15 μm bores, and, after the number of fungus colonies were counted on the blood cell counting plate, a suspension containing 10^5 CFU/ml of fungus was prepared to be used as the inoculation solution. After this solution (0.02 ml) was inoculated to Yeast Morphology Ager containing a drug at concentrations in a serial double dilution, it was cultured at 30° C. for either 1 day or 4 days.
(§4) MIC assay of cryptoporic acid H was carried out by the similar procedure as described above.

[2] = test system: Aspergillus fumigatus TIMM0063; experiment: MIC assay of anti-fungal activity in vitro, Aspergillus fumigatus TIMM0063; type: cell-based; conditions: 96 h, A. fumigatus TIMM0063, Yeast Morphology Ager, serial double dilution, 30° C., 4 days
Description: as §1, §2, §3, §4

[3] = test system: Saccharomyces cerevisiae JCM2216; experiment: MIC assay, Saccharomyces cerevisiae JCM2216; type: cell-based; conditions: similar procedure as described above
[4] = test system: Aspergillus niger TIMM0113; experiment: MIC assay of anti-fungal activity in vitro, Aspergillus niger TIMM0113; type: cell-based; conditions: 96 h, A. niger TIMM0113, Yeast Morphology Ager, serial double dilution, 30° C., 4 days
Description: as §1, §2, §3, §4

Solubility = type: physicochemical
[5] = test system: Candida albicans, Cryptococcus neoformans, Aspergillus nigar and Aspergillus fumigatus; experiment: anti-microbial activity in vitro against test fungi (overall statement); type: cell-based; conditions: stated in words
Description: as §1, §2, §3

C. neoformans TIMM0354 = experiment: MIC assay of anti-fungal activity in vitro, Cryptococcus neoformans TIMM0354; type: cell-based; conditions: 24 h, Yeast Morphology Ager, serial double dilution, 30° C., 1 day
Description: as §1, §2, §3

[6] = in methanol, acetone, and ethyl acetate

Row | Compound | MIC [1] | MIC [2] | MIC [3] | MIC [4] | Solubility (Solubility; in chloroform) | Solubility (Solubility; [6]) | Solubility (Solubility; in water) | anti-fungal activities [5] | MIC (C. neoformans TIMM0354)
1 | C=C1CC[C@H]2C(C)(C)CCC[C@]2(C)[C@H]1COC(C(=O)O)C(CC(=O)O)C(=O)O (some centres unmarked) [Cryptoporic acid H, cryptoporic acid H] | 200 µg/mL (≈ 504 µM) | 200 µg/mL (≈ 504 µM) | 200 µg/mL (≈ 504 µM) | 200 µg/mL (≈ 504 µM) | – | – | – | – | –
2 | C=C1CC[C@H]2C(C)(C)CCC[C@]2(C)[C@H]1COC(C(=O)O[C@H]1CC(C)(C)[C@@H]2CC=C(C=O)[C@H](C=O)[C@@]2(C)C1)C(CC(=O)O)C(=O)OC (some centres unmarked) [TG102] | – | – | – | – | soluble | readily soluble | slightly soluble | – | –
3 | C=C1CC[C@H]2C(C)(C)CCC[C@]2(C)[C@H]1COC(C(=O)OC)C(CC(=O)O)C(=O)O[C@H]1CC(C)(C)[C@@H]2CC=C(C=O)[C@H](C=O)[C@@]2(C)C1 (some centres unmarked) [TG101] | 100 µg/mL (≈ 156 µM) | 50 µg/mL (≈ 77.8 µM) | – | 50 µg/mL (≈ 77.8 µM) | soluble | readily soluble | slightly soluble | confirming their anti-fungal activities | 50 µg/mL (≈ 77.8 µM)
4 | C=C1CC[C@H]2C(C)(C)CCC[C@]2(C)[C@H]1COC(C(=O)O[C@H]1CC(C)(C)[C@@H]2CC=C3COC(O)[C@@H]3[C@@]2(C)C1)C(CC(=O)O)C(=O)OC (some centres unmarked) [TG104] | – | – | – | – | soluble | readily soluble | slightly soluble | – | –
5 | C=C1CC[C@H]2C(C)(C)CCC[C@]2(C)[C@H]1COC(C(=O)OC)C(CC(=O)O)C(=O)O[C@H]1CC(C)(C)[C@@H]2CC=C3COC(O)[C@@H]3[C@@]2(C)C1 (some centres unmarked) [TG103] | 100 µg/mL (≈ 155 µM) | 25 µg/mL (≈ 38.8 µM) | – | 100 µg/mL (≈ 155 µM) | soluble | readily soluble | slightly soluble | confirming their anti-fungal activities | 50 µg/mL (≈ 77.5 µM)
